How the values were obtained:
Format in all cases: cell-based
Conditions in all cases: 100 ng/me of peptide; EBV-infected B cells stimulated with anti-CD150; ELISA of culture supernatant
IL-34 = assay: Reduction of IL-34 secretion in activated B cells (ELISA)
Procedure: (§1) In order to determine the activity of the novel peptides synthesized in Example 1 for reducing the secretion of inflammatory cytokines, the activated pathogenic B cells were treated with each of the 18 types of synthesized novel peptides and the reduction in secretion of inflammatory cytokines from the B cells was monitored.
(§2) Specifically, in order to determine whether the novel peptides could weaken the pathogenic B cells which are involved in the development of disease symptoms, the in vitro B cells model which is similar to the joint infiltrative B cells of rheumatoid arthritis was used. The activated pathogenic B cell was generated by stimulating Ebstein Barr virus (EBV)-infected B cells with anti-CD150 antibodies, and the cells were treated with […] of each of the 18 types of novel peptide.
(§3) In order to confirm the effect of 18 types of novel peptides in reducing inflammatory cytokines, the secretion amount of various cytokines (IL-1A, IL-1B, IL-2, IL-4, IL-5, IL-6, IL-8, IL-10, IL-12A, IL-13, IL-17A, GM-CSF, IL-34) secreted from the activated B cells was measured. The supernatants of B cell culture were analyzed enzyme-linked immunosorbent assay (ELISA), and the difference in absorbance (450 nm-570 nm) of the color developing reagent was measured as test results. Based on the measured difference in absorbance (450 nm-570 nm) of the color developing reagent, the absorbance of cytokines secreted when treated with the 18 types of novel […] was calculated in percentage, while setting the absorbance corresponding to the cytokines secreted from the activated B cells stimulated by anti-CD150 as 100%.

IL-4 = assay: Reduction of IL-4 secretion in activated B cells (ELISA)
Procedure: as §1, §2, §3

IL-5 = assay: Reduction of IL-5 secretion in activated B cells (ELISA)
Procedure: as §1, §2, §3

IL-12A = assay: Reduction of IL-12A secretion in activated B cells (ELISA)
Procedure: as §1, §2, §3

IL-6 = assay: Reduction of IL-6 secretion in activated B cells (ELISA)
Procedure: as §1, §2, §3

GM-CSF = assay: Reduction of GM-CSF secretion in activated B cells (ELISA)
Procedure: as §1, §2, §3

IL-13 = assay: Reduction of IL-13 secretion in activated B cells (ELISA)
Procedure: as §1, §2, §3

IL-2 = assay: Reduction of IL-2 secretion in activated B cells (ELISA)
Procedure: as §1, §2, §3

IL-17A = assay: Reduction of IL-17A secretion in activated B cells (ELISA)
Procedure: as §1, §2, §3

IL-1A = assay: Reduction of IL-1A secretion in activated B cells (ELISA)
Procedure: as §1, §2, §3

IL-10 = assay: Reduction of IL-10 secretion in activated B cells (ELISA)
Procedure: as §1, §2, §3

IL-1B = assay: Reduction of IL-1B secretion in activated B cells (ELISA)
Procedure: as §1, §2, §3

IL-8 = assay: Reduction of IL-8 secretion in activated B cells (ELISA)
Procedure: as §1, §2, §3

Substance	Inhibition rate of each cytokine compared to CD150-stimulated EBV-t B cells (%) IL-34 (IL-34) [%]	Inhibition rate of each cytokine compared to CD150-stimulated EBV-t B cells (%) IL-4 (IL-4) [%]	Inhibition rate of each cytokine compared to CD150-stimulated EBV-t B cells (%) IL-5 (IL-5) [%]	Inhibition rate of each cytokine compared to CD150-stimulated EBV-t B cells (%) IL-12A (IL-12A) [%]	Inhibition rate of each cytokine compared to CD150-stimulated EBV-t B cells (%) IL-6 (IL-6) [%]	Inhibition rate of each cytokine compared to CD150-stimulated EBV-t B cells (%) GM-CSF (GM-CSF) [%]	Inhibition rate of each cytokine compared to CD150-stimulated EBV-t B cells (%) IL-13 (IL-13) [%]	Inhibition rate of each cytokine compared to CD150-stimulated EBV-t B cells (%) IL-2 (IL-2) [%]	Inhibition rate of each cytokine compared to CD150-stimulated EBV-t B cells (%) IL-17A (IL-17A) [%]	Inhibition rate of each cytokine compared to CD150-stimulated EBV-t B cells (%) IL-1A (IL-1A) [%]	Inhibition rate of each cytokine compared to CD150-stimulated EBV-t B cells (%) IL-10 (IL-10) [%]	Inhibition rate of each cytokine compared to CD150-stimulated EBV-t B cells (%) IL-1B (IL-1B) [%]	Inhibition rate of each cytokine compared to CD150-stimulated EBV-t B cells (%) IL-8 (IL-8) [%]
DGRTDG (SIS-1#9 peptide)	15.0	16.0	16.2	20.8	18.8	15.0	13.2	15.5	9.2	20.4	14.2	18.2	15.4
GRTDG (SIS-1#10 peptide)	27.0	19.5	24.2	29.8	25.0	13.0	25.7	11.4	25.0	7.8	7.5	4.2	17.9
MSLPSP (SIS-1#1 peptide)	18.8	19.8	18.5	19.8	19.2	18.0	15.0	13.5	24.8	7.8	7.2	9.3	17.5
MSLPSPRDGRTDG (SIS-1#4 peptide)	16.8	20.8	20.4	33.9	32.3	18.5	23.1	18.8	43.0	18.1	18.0	16.5	32.0
PSPRDG (SIS-1#5 peptide)	13.2	13.2	9.8	8.9	18.7	7.5	15.2	6.8	12.8	8.3	7.2	14.2	10.5
PSPRDGRTDG (SIS-1#6 peptide)	31.0	20.5	15.6	30.8	33.9	21.2	29.4	23.1	42.2	12.0	4.5	15.2	28.0
RDG (SIS-1#14 peptide)	4.2	3.0	11.0	2.9	1.5	0.3	4.4	10.2	7.7	7.2	10.4	5.3	5.7
RDGR (SIS-1#15 peptide)	6.0	6.3	6.4	10.8	4.8	1.5	7.2	12.7	10.1	11.5	7.2	5.7	15.0
